From PubChem BioAssay (NCI)
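96-well plates; 48 h exposure; 5 concentrations. Endpoints by linear interpolation between flanking doses. Not reached: highest tested concentration assigned. At the GI50, growth is halved. TGI denotes the concentration required for complete inhibition of growth.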

How the values were obtained:
Experiment in all cases: NCI tumour cell line growth inhibition, 48 h; in the data active = GI50 below about 0.43 µM; inactive = the rest
HOP-62 NSCLC = system: HOP-62 NSCLC
SNB-19 CNS = system: SNB-19 CNS
RPMI-8226 leukemia = system: RPMI-8226 leukemia
K-562 leukemia = system: K-562 leukemia
SN12C renal = system: SN12C renal
SF-268 CNS = system: SF-268 CNS
A498 renal = system: A498 renal
TK-10 renal = system: TK-10 renal
LOX IMVI melanoma = system: LOX IMVI melanoma
SR leukemia = system: SR leukemia
HS 578T breast = system: HS 578T breast
ACHN renal = system: ACHN renal
MCF7 breast = system: MCF7 breast
NCI/ADR-RES ovarian = system: NCI/ADR-RES ovarian
MDA-MB-231 breast = system: MDA-MB-231 breast
RXF 393 renal = system: RXF 393 renal
UO-31 renal = system: UO-31 renal
SNB-75 CNS = system: SNB-75 CNS
NCI-H522 lung = system: NCI-H522 lung
BT-549 breast = system: BT-549 breast
OVCAR-8 ovarian = system: OVCAR-8 ovarian
CAKI-1 renal = system: CAKI-1 renal
SK-MEL-5 melanoma = system: SK-MEL-5 melanoma
NCI-H226 lung = system: NCI-H226 lung
COLO 205 colon = system: COLO 205 colon
OVCAR-5 ovarian = system: OVCAR-5 ovarian
SW-620 colon = system: SW-620 colon
OVCAR-4 ovarian = system: OVCAR-4 ovarian
HCT-116 colon = system: HCT-116 colon
UACC-257 melanoma = system: UACC-257 melanoma
HL-60(TB) leukemia = system: HL-60(TB) leukemia
SF-539 CNS = system: SF-539 CNS
OVCAR-3 ovarian = system: OVCAR-3 ovarian
IGROV1 ovarian = system: IGROV1 ovarian
HCT-15 colon = system: HCT-15 colon
EKVX NSCLC = system: EKVX NSCLC
U251 CNS = system: U251 CNS
HCC-2998 colon = system: HCC-2998 colon
HOP-92 NSCLC = system: HOP-92 NSCLC
SK-MEL-28 melanoma = system: SK-MEL-28 melanoma
MOLT-4 leukemia = system: MOLT-4 leukemia
T-47D breast = system: T-47D breast
PC-3 prostate = system: PC-3 prostate
MDA-MB-435 = system: MDA-MB-435
KM12 colon = system: KM12 colon
A549 NSCLC = system: A549 NSCLC
UACC-62 melanoma = system: UACC-62 melanoma
CCRF-CEM leukemia = system: CCRF-CEM leukemia
SK-MEL-2 melanoma = system: SK-MEL-2 melanoma
SK-OV-3 ovarian = system: SK-OV-3 ovarian
M14 melanoma = system: M14 melanoma
DU-145 prostate = system: DU-145 prostate
SF-295 CNS = system: SF-295 CNS
NCI-H460 lung = system: NCI-H460 lung
HT29 colon = system: HT29 colon
786-0 renal = system: 786-0 renal
NCI-H23 lung = system: NCI-H23 lung
MALME-3M melanoma = system: MALME-3M melanoma

COC(=O)c1ccc(C2SC(C)C(=O)N2NC(=O)C(O)c2ccccc2)cc1 (centres undefined)
> 100 µM: TGI (HOP-62 NSCLC) | TGI (SNB-19 CNS) | TGI (RPMI-8226 leukemia) | TGI (K-562 leukemia) | TGI (SN12C renal) | TGI (SF-268 CNS) | TGI (A498 renal) | TGI (TK-10 renal) | TGI (LOX IMVI melanoma) | TGI (SR leukemia) | TGI (HS 578T breast) | TGI (ACHN renal) | TGI (MCF7 breast) | TGI (NCI/ADR-RES ovarian) | TGI (MDA-MB-231 breast) | TGI (RXF 393 renal) | TGI (UO-31 renal) | TGI (SNB-75 CNS) | TGI (NCI-H522 lung) | TGI (BT-549 breast) | TGI (OVCAR-8 ovarian) | TGI (CAKI-1 renal) | TGI (SK-MEL-5 melanoma) | TGI (NCI-H226 lung) | TGI (COLO 205 colon) | TGI (OVCAR-5 ovarian) | TGI (SW-620 colon) | TGI (OVCAR-4 ovarian) | TGI (HCT-116 colon) | TGI (UACC-257 melanoma) | TGI (HL-60(TB) leukemia) | TGI (SF-539 CNS) | TGI (OVCAR-3 ovarian) | TGI (IGROV1 ovarian) | TGI (HCT-15 colon) | TGI (EKVX NSCLC) | TGI (U251 CNS) | TGI (HCC-2998 colon) | TGI (HOP-92 NSCLC) | TGI (SK-MEL-28 melanoma) | TGI (MOLT-4 leukemia) | TGI (T-47D breast) | TGI (PC-3 prostate) | TGI (MDA-MB-435) | TGI (KM12 colon) | TGI (A549 NSCLC) | TGI (UACC-62 melanoma) | TGI (CCRF-CEM leukemia) | TGI (SK-MEL-2 melanoma) | TGI (SK-OV-3 ovarian) | TGI (M14 melanoma) | TGI (DU-145 prostate) | TGI (SF-295 CNS) | TGI (NCI-H460 lung) | TGI (HT29 colon) | TGI (786-0 renal)
inactive: GI50 (HOP-62 NSCLC) > 100 µM | GI50 (SNB-19 CNS) > 100 µM | GI50 (RPMI-8226 leukemia) > 100 µM | GI50 (K-562 leukemia) > 100 µM | GI50 (SN12C renal) > 100 µM | GI50 (SF-268 CNS) > 100 µM | GI50 (A498 renal) > 100 µM | GI50 (TK-10 renal) > 100 µM | GI50 (LOX IMVI melanoma) > 100 µM | GI50 (SR leukemia) > 100 µM | GI50 (HS 578T breast) > 100 µM | GI50 (ACHN renal) > 100 µM | GI50 (MCF7 breast) > 100 µM | GI50 (NCI/ADR-RES ovarian) > 100 µM | GI50 (MDA-MB-231 breast) > 100 µM | GI50 (RXF 393 renal) > 100 µM | GI50 (UO-31 renal) > 100 µM | GI50 (SNB-75 CNS) > 100 µM | GI50 (NCI-H522 lung) > 100 µM | GI50 (BT-549 breast) > 100 µM | GI50 (OVCAR-8 ovarian) > 100 µM | GI50 (CAKI-1 renal) > 100 µM | GI50 (SK-MEL-5 melanoma) > 100 µM | GI50 (NCI-H226 lung) > 100 µM | GI50 (COLO 205 colon) > 100 µM | GI50 (OVCAR-5 ovarian) > 100 µM | GI50 (SW-620 colon) > 100 µM | GI50 (OVCAR-4 ovarian) > 100 µM | GI50 (HCT-116 colon) > 100 µM | GI50 (UACC-257 melanoma) > 100 µM | GI50 (HL-60(TB) leukemia) > 100 µM | GI50 (SF-539 CNS) > 100 µM | GI50 (OVCAR-3 ovarian) > 100 µM | GI50 (IGROV1 ovarian) > 100 µM | GI50 (HCT-15 colon) > 100 µM | GI50 (EKVX NSCLC) > 100 µM | GI50 (U251 CNS) > 100 µM | GI50 (HCC-2998 colon) > 100 µM | GI50 (HOP-92 NSCLC) > 100 µM | GI50 (SK-MEL-28 melanoma) > 100 µM | GI50 (MOLT-4 leukemia) > 100 µM | GI50 (T-47D breast) > 100 µM | GI50 (PC-3 prostate) > 100 µM | GI50 (MDA-MB-435) > 100 µM | GI50 (KM12 colon) > 100 µM | GI50 (A549 NSCLC) > 100 µM | GI50 (UACC-62 melanoma) > 100 µM | GI50 (CCRF-CEM leukemia) > 100 µM | GI50 (SK-MEL-2 melanoma) > 100 µM | GI50 (SK-OV-3 ovarian) > 100 µM | GI50 (M14 melanoma) > 100 µM | GI50 (DU-145 prostate) > 100 µM | GI50 (SF-295 CNS) > 100 µM | GI50 (NCI-H460 lung) > 100 µM | GI50 (HT29 colon) > 100 µM | GI50 (786-0 renal) > 100 µM

NC(N)=NCCN1CCCCCc2ccccc21
> 10 µM: TGI (HOP-62 NSCLC) | TGI (SNB-19 CNS) | TGI (RPMI-8226 leukemia) | TGI (K-562 leukemia) | TGI (SN12C renal) | TGI (SF-268 CNS) | TGI (NCI-H23 lung) | TGI (A498 renal) | TGI (TK-10 renal) | TGI (LOX IMVI melanoma) | TGI (SR leukemia) | TGI (HS 578T breast) | TGI (ACHN renal) | TGI (MCF7 breast) | TGI (NCI/ADR-RES ovarian) | TGI (MDA-MB-231 breast) | TGI (RXF 393 renal) | TGI (SNB-75 CNS) | TGI (NCI-H522 lung) | TGI (BT-549 breast) | TGI (OVCAR-8 ovarian) | TGI (CAKI-1 renal) | TGI (SK-MEL-5 melanoma) | TGI (NCI-H226 lung) | TGI (COLO 205 colon) | TGI (OVCAR-5 ovarian) | TGI (SW-620 colon) | TGI (OVCAR-4 ovarian) | TGI (HCT-116 colon) | TGI (UACC-257 melanoma) | TGI (HL-60(TB) leukemia) | TGI (SF-539 CNS) | TGI (OVCAR-3 ovarian) | TGI (IGROV1 ovarian) | TGI (HCT-15 colon) | TGI (EKVX NSCLC) | TGI (U251 CNS) | TGI (HCC-2998 colon) | TGI (HOP-92 NSCLC) | TGI (SK-MEL-28 melanoma) | TGI (MOLT-4 leukemia) | TGI (T-47D breast) | TGI (PC-3 prostate) | TGI (MDA-MB-435) | TGI (KM12 colon) | TGI (A549 NSCLC) | TGI (MALME-3M melanoma) | TGI (UACC-62 melanoma) | TGI (CCRF-CEM leukemia) | TGI (SK-MEL-2 melanoma) | TGI (SK-OV-3 ovarian) | TGI (M14 melanoma) | TGI (DU-145 prostate) | TGI (SF-295 CNS) | TGI (NCI-H460 lung) | TGI (HT29 colon) | TGI (786-0 renal)
